Laboratory results published in the supplement of paper PMC10307832.

The cell lines below were run with Cn1cnc2c(F)c(Nc3ccc(Br)cc3Cl)c(C(=O)NOCCO)cc21 [Selumetinib] + NC(=O)Nc1cc(-c2cccc(F)c2)sc1C(=O)N[C@H]1CCCNC1 [AZD7762] (partner 0.2 µM) (assay: relative viability (nuclei count vs DMSO), 5 days (fraction); higher = more cells survive). Details: first compound 0.02 µM.
In short: (§1)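 For relative viability, nuclei counts in treated wells were divided by those in vehicle wells. Lung cancer cell lines had been pin-tool dosed in 1536-well plates the day after seeding and cultured for 5 days, then fixed and stained in one step (final 0.05% Triton X-100, 1% formaldehyde, 1 ug/ml Hoechst) and imaged at 4×. Doses were one drug alone or a fixed anchor-drug dose plus five library-drug doses (not always all listed) in √10 steps, and values are duplicate-plate medians.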

In order of falling relative viability:
1. NCI-H522  0.728
2. CAL-12T  0.64
3. SW 900  0.59
4. NCI-H2342  0.551
5. PC-14  0.364
6. NCI-H1703  0.157

Same assay, conditions: first compound 0.06325 µM

In order of falling relative viability:
1. NCI-H522  0.781
2. NCI-H1648  0.737
3. SW 900  0.636
4. CAL-12T  0.574
5. NCI-H2342  0.436
6. PC-14  0.397
7. NCI-H1703  0.119

Same assay, conditions: first compound 0.2 µM

In order of falling relative viability:
1. NCI-H522  0.842
2. NCI-H1648  0.733
3. SW 900  0.611
4. CAL-12T  0.566
5. NCI-H2342  0.474
6. PC-14  0.276

Same assay, conditions: first compound 0.6325 µM

In order of falling relative viability:
1. NCI-H522  0.828
2. NCI-H1648  0.67
3. NCI-H2342  0.568
4. CAL-12T  0.568
5. SW 900  0.553
6. PC-14  0.313
7. NCI-H1703  0.134

What follows are cell lines tested with CC1(C)CCC(CN2CCN(c3ccc(C(=O)NS(=O)(=O)c4ccc(NCC5CCOCC5)c([N+](=O)[O-])c4)c(Oc4cnc5[nH]ccc5c4)c3)CC2)=C(c2ccc(Cl)cc2)C1 [Venetoclax] + O=C(c1cc(Cc2n[nH]c(=O)c3ccccc23)ccc1F)N1CCN(C(=O)C2CC2)CC1 [Olaparib] (partner 8 µM) in the same assay as above. Details: first compound 0.01 µM.
In short: as §1

In order of falling relative viability:
1. NCI-H1299  0.975
2. IA-LM  0.795
3. NCI-H1650  0.763
4. SW 900  0.76
5. NCI-H661  0.745
6. SK-MES-1  0.732
7. CAL-12T  0.675
8. NCI-H2009  0.662
9. EBC-1  0.636
10. Calu-6  0.609
11. SW 1573  0.581
12. NCI-H522  0.561
13. NCI-H2228  0.519
14. COR-L 105  0.518
15. NCI-H2342  0.462
16. SK-LU-1  0.447
17. NCI-H2023  0.425
18. NCI-H520  0.388
19. NCI-H1703  0.35
20. COR-L23  0.331
21. A549  0.302
22. PC-14  0.256

Same assay, conditions: first compound 0.03162 µM

In order of rising relative viability:
1. PC-14  0.297
2. NCI-H520  0.315
3. NCI-H1703  0.328
4. A549  0.376
5. COR-L23  0.473
6. NCI-H2023  0.498
7. SW 1573  0.516
8. NCI-H2342  0.554
9. NCI-H522  0.611
10. Calu-6  0.619
11. SK-LU-1  0.665
12. CAL-12T  0.715
13. COR-L 105  0.718
14. NCI-H2009  0.729
15. NCI-H1650  0.733
16. NCI-H1648  0.766
17. EBC-1  0.77
18. NCI-H661  0.789
19. IA-LM  0.819
20. NCI-H2228  0.832
21. SW 900  0.866
22. SK-MES-1  0.918
23. NCI-H1299  0.991

Same assay, conditions: first compound 0.1 µM

In order of falling relative viability:
1. NCI-H1299  1.01
2. NCI-H1650  0.994
3. SW 900  0.841
4. CAL-12T  0.732
5. NCI-H661  0.715
6. COR-L 105  0.709
7. IA-LM  0.7
8. NCI-H1648  0.698
9. NCI-H2009  0.681
10. EBC-1  0.662
11. SK-MES-1  0.66
12. NCI-H522  0.612
13. Calu-6  0.602
14. NCI-H2342  0.543
15. NCI-H2228  0.519
16. SW 1573  0.479
17. SK-LU-1  0.477
18. NCI-H2023  0.453
19. NCI-H1703  0.333
20. COR-L23  0.313
21. A549  0.311
22. PC-14  0.245

Same assay, conditions: first compound 0.3162 µM

In order of rising relative viability:
1. PC-14  0.302
2. NCI-H520  0.327
3. A549  0.35
4. COR-L23  0.382
5. NCI-H2342  0.401
6. NCI-H1703  0.44
7. SW 1573  0.473
8. Calu-6  0.554
9. NCI-H2023  0.561
10. SK-LU-1  0.574
11. NCI-H1650  0.592
12. NCI-H522  0.621
13. EBC-1  0.647
14. NCI-H2009  0.655
15. COR-L 105  0.691
16. CAL-12T  0.709
17. SK-MES-1  0.737
18. NCI-H661  0.74
19. NCI-H2228  0.776
20. IA-LM  0.795
21. NCI-H1648  0.841
22. SW 900  0.845
23. NCI-H1299  0.927

Same assay, conditions: first compound 1 µM

In order of rising relative viability:
1. PC-14  0.226
2. COR-L23  0.314
3. A549  0.339
4. NCI-H520  0.387
5. SW 1573  0.399
6. NCI-H2023  0.455
7. NCI-H2342  0.475
8. NCI-H1703  0.476
9. Calu-6  0.546
10. NCI-H2009  0.586
11. SK-LU-1  0.623
12. CAL-12T  0.634
13. EBC-1  0.662
14. SK-MES-1  0.664
15. IA-LM  0.67
16. COR-L 105  0.674
17. NCI-H522  0.688
18. NCI-H2228  0.692
19. NCI-H661  0.708
20. NCI-H1648  0.713
21. NCI-H1650  0.745
22. SW 900  0.819
23. NCI-H1299  0.943

The cell lines below were run with Cn1cnc2c(F)c(Nc3ccc(Br)cc3Cl)c(C(=O)NOCCO)cc21 [Selumetinib] + Nc1ncn([C@H]2C[C@H](O)[C@@H](CO)O2)c(=O)n1 [Decitabine] (partner 2 µM) in the same assay as above. Details: first compound 0.02 µM.
In short: as §1

In order of rising relative viability:
1. PC-14  0.241
2. NCI-H522  0.837
